Active and inactive are the calls of the source.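 How the source made its calls: active means compounds whose averaged half-maximal activating concentration falls below 100 micromolar; inactive means the rest.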

In the experiment the target is intestinal alkaline phosphatase (Alpi), mouse. Briefly: murine Alpi activation by analogs – biochemical, luminescence, set 2, SAR follow-up (AID 588609). As to conditions: purified muIAP, CDP-Star luminescence, 30 min.
The EC50 is the concentration needed to bring the measured effect to its halfway point. As to `CC1CC(NC(=S)Nc2cccc(S(=O)(=O)N(C)C)c2)CC(C)N1` (stereo not given), the EC50 is > 100 µM (inactive).

As for `CN(C)S(=O)(=O)c1cccc(NC(=S)NCCCn2ccnc2)c1`, the EC50 was > 100 µM (inactive).

Consider `Cc1ccc(S(=O)(=O)N(C)C)cc1NC(=S)NC1CCN(Cc2ccccc2)CC1`, for which the EC50 is > 100 µM (inactive).

`O=S(=O)(c1ccc(NC(=S)NCCC(c2ccccc2)c2ccccc2)cc1)N1CCCCC1`: the EC50 was 44.5 µM.

As for `CN(C)S(=O)(=O)c1cccc(NC(=S)NCCc2ccc(Br)cc2)c1`, the EC50 is 86 µM.

On to `CN(C)S(=O)(=O)c1cccc(NC(=S)NCC(c2ccccc2)c2ccccc2)c1`, for which the 50% effective concentration (EC50) is 15.3 µM.

As to `CN(C)CC(C)(C)CNC(=S)Nc1cccc(S(=O)(=O)N(C)C)c1`, the EC50 was > 100 µM (inactive).

Consider `CN(C)S(=O)(=O)c1cccc(NC(=S)NCCC(=O)N2CCCC2)c1`, for which the EC50 is > 100 µM (inactive).

`COc1cccc(CNC(=S)Nc2ccc(S(=O)(=O)N(C)C)cc2)c1`: the EC50 is 45.1 µM.

For `CN(C)S(=O)(=O)c1ccc(NC(=S)NC(c2ccccc2)c2ccccc2)cc1`, the EC50 was 3.23 µM.

`Cc1ccc(CNC(=S)Nc2cccc(S(=O)(=O)N(C)C)c2)cc1`: the EC50 is 25.9 µM.

As to `Cc1ccc(CNC(=S)Nc2ccc(S(=O)(=O)N(C)C)cc2)cc1`, the 50% effective concentration (EC50) was 73.2 µM.

With `CN(C)S(=O)(=O)c1ccc(NC(=S)NCCc2cccc(Br)c2)cc1`, the EC50 was 48.5 µM.

Regarding `CN(C)S(=O)(=O)c1cccc(NC(=S)NCCc2cccc(O)c2)c1`, the EC50 was > 100 µM (inactive).

Take `COc1ccc(CNC(=S)Nc2ccc(S(=O)(=O)N3CCCCC3)cc2)cc1OC`: the EC50 is 43.7 µM.

For the compound `CC1CCN(S(=O)(=O)c2ccc(NC(=S)NC(c3ccccc3)c3ccccc3)cc2)CC1`, the half-maximal effective concentration (EC50) is 7.3 µM.

For `CCCCCCC(C)NC(=S)Nc1cc(S(=O)(=O)N(C)C)ccc1C` (stereo not given), the EC50 was 12.3 µM.

As to `O=C(NC(=S)Nc1cc(S(=O)(=O)N2CCOCC2)ccc1O)c1ccco1`, the EC50 is > 100 µM (inactive).

In the case of `CN(C)CCCNC(=S)Nc1cccc(S(=O)(=O)N(C)C)c1`, the EC50 is > 100 µM (inactive).

Regarding `CC(CCc1ccccc1)NC(=S)Nc1cccc(S(=O)(=O)N(C)C)c1` (stereo not given), the EC50 was 44.7 µM.

For `CN(C)S(=O)(=O)c1ccc(NC(=S)NCCc2cccc(O)c2)cc1`, the EC50 was > 100 µM (inactive).

In the case of `CCN(CC)S(=O)(=O)c1ccc(NC(=S)NCC(c2ccccc2)c2ccccc2)cc1`, the 50% effective concentration (EC50) is 19.5 µM.

As to `O=S(=O)(c1ccc(NC(=S)NCC(c2ccccc2)c2ccccc2)cc1)N1CCCCC1`, the concentration giving a half-maximal response (EC50) was 5.37 µM.

Turning to `O=S(=O)(c1ccc(NC(=S)NCCC(c2ccccc2)c2ccccc2)cc1)N1CCCC1`, the 50% effective concentration (EC50) was 59.3 µM.

With `CC(CNC(=S)Nc1cccc(S(=O)(=O)N(C)C)c1)N1CCN(c2ccccc2)CC1` (stereo not given), the half-maximal effective concentration (EC50) was 87.5 µM.

Take `O=S(=O)(c1ccc(NC(=S)NCc2cccc(Cl)c2)cc1)N1CCCCC1`: the EC50 is 36.1 µM.

On to `CCN(CC)c1ccc(C(=O)NC(=S)Nc2cc(S(=O)(=O)N3CCOCC3)ccc2-n2cncn2)cc1`, for which the EC50 was > 100 µM (inactive).

Take `Cc1ccc(S(=O)(=O)N(C)C)cc1NC(=S)NCCCn1ccnc1`: the EC50 was > 100 µM (inactive).

Turning to `CCN(CC)S(=O)(=O)c1ccc(NC(=S)NCCC(c2ccccc2)c2ccccc2)cc1`, the half-maximal effective concentration (EC50) is 76.9 µM.

Consider `Cc1ccc(C)c(NC(=S)Nc2ccc(S(=O)(=O)N3CCCCC3)cc2)c1`, for which the EC50 is > 100 µM (inactive).

In the case of `COc1ccc(CCNC(=S)Nc2ccc(S(=O)(=O)N3CCCCC3)cc2)cc1OC`, the half-maximal effective concentration (EC50) was 60.5 µM.

On to `CN(C)S(=O)(=O)c1cccc(NC(=S)NCc2ccc(Cl)cc2)c1`, for which the concentration giving a half-maximal response (EC50) was 12.2 µM.

As to `O=S(=O)(c1ccc(NC(=S)NC(c2ccccc2)c2ccccc2)cc1)N1CCCCC1`, the EC50 is 4.38 µM.

As to `CN(C)S(=O)(=O)c1ccc(NC(=S)NCC(c2ccccc2)c2ccccc2)cc1`, the EC50 was 13.4 µM.

With `CC1CCN(S(=O)(=O)c2ccc(NC(=S)NCC(c3ccccc3)c3ccccc3)cc2)CC1`, the concentration for a half-maximal effect (EC50) is 6.81 µM.

For `CN(C)S(=O)(=O)c1ccc(NC(=S)NCCN2CCCC2)cc1`, the EC50 is > 100 µM (inactive).

Turning to `CN(C)S(=O)(=O)c1cccc(NC(=S)NC(c2ccccc2)c2ccccc2)c1`, the EC50 was 26 µM.

With `CN(C)S(=O)(=O)c1cccc(NC(=S)NCCc2ccc(F)cc2)c1`, the EC50 was > 100 µM (inactive).

Take `Cc1ccccc1CNC(=S)Nc1ccc(S(=O)(=O)N(C)C)cc1`: the concentration for a half-maximal effect (EC50) was 47.7 µM.

`COc1ccc(CCNC(=S)Nc2ccc(S(=O)(=O)N3CCCCC3)cc2)cc1`: the EC50 is 60.6 µM.

`CN(CCc1ccccc1)C(=S)Nc1cccc(S(=O)(=O)N(C)C)c1`: the EC50 was > 100 µM (inactive).

As to `CN(C)S(=O)(=O)c1cccc(NC(=S)NCCc2cccc(F)c2)c1`, the EC50 is 20.2 µM.

With `COc1cccc(CCNC(=S)Nc2cccc(S(=O)(=O)N(C)C)c2)c1`, the EC50 was 53.7 µM.

In the case of `CCN(CC)S(=O)(=O)c1ccc(NC(=S)NC(c2ccccc2)c2ccccc2)cc1`, the EC50 was 43.9 µM.

With `Cc1ccc(S(=O)(=O)N(C)C)cc1NC(=S)NC(C)CCC(C)C` (stereo not given), the half-maximal effective concentration (EC50) was 42.7 µM.

`O=c1c2ccccc2[nH]c(=S)n1-c1cccc(S(=O)(=O)N2CCCC2)c1`: the EC50 is > 100 µM (inactive).

For `CN(C)S(=O)(=O)c1ccc(NC(=S)NCCc2ccccc2)cc1`, the EC50 is > 100 µM (inactive).

Turning to `Cc1ccc(S(=O)(=O)N(C)C)cc1NC(=S)NC(C)CCCC(C)C` (stereo not given), the concentration for a half-maximal effect (EC50) was 51.5 µM.

In the case of `COc1ccccc1CNC(=S)Nc1ccc(S(=O)(=O)N(C)C)cc1`, the concentration for a half-maximal effect (EC50) is 67.1 µM.

For the compound `CN(C)S(=O)(=O)c1cccc(NC(=S)NCCc2cccc(Br)c2)c1`, the EC50 was 56.9 µM.

In the case of `O=S(=O)(c1ccc(NC(=S)NCc2cccc(F)c2)cc1)N1CCCCC1`, the EC50 was 28.5 µM.

With `O=C(NC(=S)Nc1cc(S(=O)(=O)N2CCOCC2)ccc1N1CCOCC1)c1ccco1`, the EC50 was > 100 µM (inactive).

As to `O=S(=O)(c1ccc(NC(=S)NCC(c2ccccc2)c2ccccc2)cc1)N1CCCC1`, the EC50 is 9.09 µM.

On to `Cc1ccc(S(=O)(=O)N(C)C)cc1NC(=S)NC(=O)C12CC3CC(CC(C3)C1)C2`, for which the EC50 is > 100 µM (inactive).

For the compound `O=S(=O)(c1ccc(NC(=S)NC(c2ccccc2)c2ccccc2)cc1)N1CCCC1`, the EC50 was 12.7 µM.

As to `CCN(CC)CCCNC(=S)Nc1cccc(S(=O)(=O)N(C)C)c1`, the EC50 was > 100 µM (inactive).

`CN(C)S(=O)(=O)c1cccc(NC(=S)NCCN2CCCC2)c1`: the EC50 is > 100 µM (inactive).

Consider `O=C(CCc1ccccc1)NC(=S)Nc1cccc(S(=O)(=O)N2CCCC2)c1`, for which the EC50 was > 100 µM (inactive).

In the case of `CN(C)S(=O)(=O)c1ccc(NC(=S)NCCC(c2ccccc2)c2ccccc2)cc1`, the EC50 was 20.1 µM.

As for `CN(C)S(=O)(=O)c1cccc(NC(=S)NCCCN2CCCC2=O)c1`, the EC50 is > 100 µM (inactive).

Turning to `CN(C)S(=O)(=O)c1cccc(NC(=S)NCCC(c2ccccc2)c2ccccc2)c1`, the concentration for a half-maximal effect (EC50) is 7.44 µM.

In the case of `CC1CCN(S(=O)(=O)c2ccc(NC(=S)NCCC(c3ccccc3)c3ccccc3)cc2)CC1`, the 50% effective concentration (EC50) was 12.9 µM.

For `CN(C)S(=O)(=O)c1cccc(NC(=S)NCCc2ccccc2)c1`, the half-maximal effective concentration (EC50) was 51.6 µM.

Regarding `CN(C)S(=O)(=O)c1cccc(NC(=S)NC(C)(C)CC(C)(C)C)c1`, the EC50 is 32.1 µM.

`CN(CCc1ccccn1)C(=S)Nc1cccc(S(=O)(=O)N(C)C)c1`: the EC50 is > 100 µM (inactive).
